Several values for one entry are separate records, joined by “and”; a condition that tells them apart may be missing. Equal entries are not always repeated. Marks after values point to notes of the source that are not given here.
Experiments:
[1] = test system: ocular normotensive dogs (Beagle); experiment: Intraocular pressure by pneumatonometry in ocular normotensive dogs; assay type: in vivo; conditions: normotensive dog; for ΔΔEmax (difference in IOP compound-treated eye over vehicle-treated eye at time of maximum reduction): topical 50 μl drop to one eye in the evening, contralateral eye vehicle, dose equimolar to 0.03% Bimatoprost, n=8; for % Change from vehicle control (IOP): topical 50 μl drop to one eye, contralateral eye vehicle (set at 100%)
Protocol: (§1) Intraocular pressure was measured by pneumatonometry in ocular normotensive dogs (Beagle) and ocular hypertensive non human primates (for example, although dosing different here, see hypertensive primates described by Toris, C. B.; Zhan, G.-L.; Feilmeier, M. R.; Camras, C. B.; McLaughlin, M. A. J. Ocular Pharm. Ther. 2006, 22, 86-92). As described, only one eye is hypertensive in this primate model. Studies were performed in conscious animals (n=8/study) trained to accept pneumatonometry. The test compound and controls were formulated in a 10 mM citrate buffer vehicle at pH 5.5 with 0.5% Tween 80 and 0.02% benzalkonium chloride, and were administered in the evening. All test compounds were formulated at a dose equimolar to 0.03% Bimatoprost. Intraocular pressure was measured at −12 (baseline), 12 and 18 hours post treatment. Tetracaine hydrochloride (0.5%) was used to anesthetize the cornea when the intraocular pressure measurements were taken.
(§2) In the primate model, the hypertensive eye received 2×25 μl volume drops of the test compound. After a washout period of one week, the ocular hypertensive eye was then dosed with Bimatoprost (2×25 μl volume drops) as a control. The contralateral, normotensive eye was not treated in the study. In the normotensive dog model, the test compound was administered topically to one eye in a 50 μl volume drop. The contralateral eye received a 50 μl volume drop of blank vehicle or Bimatoprost (in the case of the head-to-head study only) to serve as a control. Students paired t test was used to compare treatment with test compound vs vehicle or Bimatoprost control for significant differences.
(§3) Tables 2 and 3 describe the intraocular pressure (IOP) changes that were seen following topical application of novel NO-prostamides in ocular hypertensive non-human primates and normotensive dogs. ΔEmax represents the maximal efficacy as compared to baseline (BL) values. ΔΔEmax reflects the difference in IOP from compound-treated eye over that seen for vehicle-treated eye at the timepoint wherein maximum IOP reduction for compound was seen. The percent change from vehicle control was the percentage change in IOP reduction conferred by compound over that for vehicle (set at 100%). Tmax represents the time point at which maximum IOP reduction of compound was observed.

[2] = test system: ocular hypertensive non human primates; experiment: Intraocular pressure by pneumatonometry in ocular hypertensive primates; assay type: in vivo; conditions: ocular hypertensive primate, hypertensive eye, topical 2×25 μl drops in the evening, dose equimolar to 0.03% Bimatoprost; for ΔEmax (maximal IOP efficacy as compared to baseline): IOP at 12 and 18 h, n=8
Protocol: as §1, §2, §3

Compound	ΔΔEmax (difference in IOP compound-treated eye over vehicle-treated eye at time of maximum reduction) [1]	% Change from vehicle control (IOP) [1]	% change from Baseline (IOP) [2]	ΔEmax (maximal IOP efficacy as compared to baseline) [2]
CCNC(=O)CCC/C=C\C[C@@H]1[C@@H](/C=C/[C@@H](O)CCc2ccccc2)[C@H](OC(=O)CCCCCO[N+](=O)[O-])C[C@@H]1O [Example F-1, (1R,2R,3R,4S)-3-[(2Z)-7-(Ethylamino)-7-oxohept-2-en-1-yl]-4-hydroxy-2-[(1E,3S)-3-hydroxy-5-phenylpent-1-en-1-yl]cyclopentyl 6-(Nitrooxy)hexanoate]	−4.9** mm H/g	−25** %		
CCNC(=O)CCC/C=C\C[C@@H]1[C@@H](/C=C/[C@@H](O)CCc2ccccc2)[C@H](OC(=O)OCCCCO[N+](=O)[O-])C[C@@H]1O [Example G-1, (2R,3R)-3-[(2Z)-7-(Ethylamino)-7-oxohept-2-en-1-yl]-4-hydroxy-2-[(1E,3S)-3-hydroxy-5-phenylpent-1-en-1-yl]cyclopentyl 4-(Nitrooxy)butyl Carbonate]	−3.8** mm H/g	-20%		
CCNC(=O)CCC/C=C\C[C@@H]1[C@@H](/C=C/[C@@H](O)CCc2ccccc2)[C@H](O)C[C@@H]1O [Bimatoprost, reference compound]	−4.0** mm H/g	−16** %	−13%	−4.8* mm Hg
CCNC(=O)CCC/C=C\C[C@@H]1[C@@H](/C=C/[C@H](CCc2ccccc2)OC(=O)CCCO[N+](=O)[O-])[C@H](O)C[C@@H]1O [Example A-1, (1S,2E)-3-{(1R,2R,3S,5R)-2-[(2Z)-7-(Ethylamino)-7-oxohept-2-en-1-yl]-3,5-dihydroxycyclopentyl}-1-(2-phenylethyl)prop-2-en-1-yl 4-(Nitrooxy)butanoate]	−3.6** mm H/g	−20** %		
CCNC(=O)CCC/C=C\C[C@@H]1[C@@H](/C=C/[C@H](CCc2ccccc2)OC(=O)CCOCCOCCOCCO[N+](=O)[O-])[C@H](O)C[C@@H]1O [Example C-1, (1S,2E)-3-{(1R,2R,3S,5R)-2-[(2Z)-7-(Ethylamino)-7-oxohept-2-en-1-yl]-3,5-dihydroxycyclopentyl}-1-(2-phenylethyl)prop-2-en-1-yl 3-(2-{2-[2-(Nitrooxy)ethoxy]ethoxy}ethoxy)propanoate]	−3.6** mm H/g	-18%		
CCNC(=O)CCC/C=C\C[C@@H]1[C@@H](/C=C/[C@H](CCc2ccccc2)OC(=O)CCCCCO[N+](=O)[O-])[C@H](O)C[C@@H]1O [Example B-1, (1S,2E)-3-{(1R,2R,3S,5R)-2-[(2Z)-7-(Ethylamino)-7-oxohept-2-en-1-yl]-3,5-dihydroxycyclopentyl}-1-(2-phenylethyl)prop-2-en-1-yl 6-(Nitrooxy)hexanoate]		−28** % and −34** %	−24** %	−7.7** mm Hg
